Measurements: PubChem BioAssay (NCI)
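96-well plates; 48 h exposure; 5 concentrations. Endpoints by linear interpolation between flanking doses. Not reached: highest tested concentration assigned. GI50 = concentration required for 50% inhibition of growth. TGI is the concentration that stops growth completely.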

Key:
Assay in all cases: DTP human tumour cell line panel, 48 h
SK-MEL-5 melanoma = test system: SK-MEL-5 melanoma
MALME-3M melanoma = test system: MALME-3M melanoma
A549 NSCLC = test system: A549 NSCLC
HCT-15 colon = test system: HCT-15 colon
OVCAR-3 ovarian = test system: OVCAR-3 ovarian
HT29 colon = test system: HT29 colon
SF-295 CNS = test system: SF-295 CNS
SN12C renal = test system: SN12C renal
MDA-MB-435 = test system: MDA-MB-435
MCF7 breast = test system: MCF7 breast

Row | SMILES | TGI (SK-MEL-5 melanoma) [µM] | TGI (MALME-3M melanoma) [µM] | TGI (A549 NSCLC) [µM] | TGI (HCT-15 colon) [µM] | TGI (OVCAR-3 ovarian) [µM] | TGI (HT29 colon) [µM] | TGI (SF-295 CNS) [µM] | TGI (SN12C renal) [µM] | GI50 (MDA-MB-435) [µM] | TGI (MDA-MB-435) [µM] | GI50 (SK-MEL-5 melanoma) [µM] | GI50 (MALME-3M melanoma) [µM] | GI50 (MCF7 breast) [µM] | TGI (MCF7 breast) [µM] | GI50 (A549 NSCLC) [µM] | GI50 (HCT-15 colon) [µM] | GI50 (OVCAR-3 ovarian) [µM] | GI50 (HT29 colon) [µM] | GI50 (SN12C renal) [µM] | GI50 (SF-295 CNS) [µM]
1 | C[Si](C)(C)CN1C(=O)c2ccccc2C1(O)c1ccccc1 (stereo not given) | > 100 | > 100 | > 100 | > 100 | > 100 | > 100 | > 100 | > 100 | – | – | – | – | – | – | – | – | – | – | – | –
2 | Cc1ccc(C)c(N2C(=O)C(=O)C(c3nc4ccccc4o3)/C(=N/N)C2=O)c1 (stereo not given) | > 100 | > 100 | > 100 | > 100 | > 100 | > 100 | > 100 | > 100 | – | – | – | – | – | – | – | – | – | – | – | –
3 | CC1COS(=O)O1 (stereo not given) | > 100 | > 100 | > 100 | > 100 | > 100 | > 100 | > 100 | > 100 | – | – | – | – | – | – | – | – | – | – | – | –
4 | CCOc1ccc(N=Cc2c3ccccc3nc3ccccc23)cc1 | > 100 | > 100 | > 100 | > 100 | > 100 | > 100 | > 100 | > 100 | – | – | – | – | – | – | – | – | – | – | – | –
5 | c1ccc2c(c1)c1ccccc1c1ccccc21 | > 100 | > 100 | > 100 | > 100 | > 100 | > 100 | – | > 100 | > 100 | > 100 | > 100 | > 100 | > 100 | > 100 | > 100 | > 100 | > 100 | > 100 | > 100 | –
6 | O=C1c2ccc3c4ccccc4n(-c4ccccc4)c3c2C(=O)N1c1ccc(Cl)cc1 | > 100 | > 100 | > 100 | > 100 | > 100 | > 100 | > 100 | > 100 | – | – | – | – | – | – | – | – | – | – | – | –
7 | NC(=O)CNc1ccc([As]=[As]c2ccc(NCC(N)=O)cc2)cc1 (stereo not given) | 5.17 | 9.71 | > 100 | 60.7 | 6.14 | – | 36.9 | – | 6.24 | 56.6 | 1.95 | 2.62 | 2.12 | 15.2 | 23.5 | 4.21 | 2.1 | – | – | 8.91
8 | Nc1ccc(C2=N/C(=C\c3cccc(N)c3)C(=O)O2)cc1 | > 100 | > 100 | > 100 | > 100 | > 100 | > 100 | > 100 | > 100 | – | – | – | – | – | – | – | – | – | – | – | –
9 | CCOC(=O)C1=C(Nc2ccc(Br)cc2)OCC1=O | > 100 | > 100 | > 100 | > 100 | > 100 | > 100 | > 100 | > 100 | – | – | – | – | – | – | – | – | – | – | – | –
10 | O=C1C2[C@@H](C(=O)N1c1ccc(Br)cc1)C13C(=CC2([N+](=O)[O-])[C@@H]2C(=O)N(c4ccc(Br)cc4)C(=O)[C@@H]21)c1ccccc1N3c1ccccc1 (stereo not given in full) | – | > 100 | > 100 | > 100 | > 100 | – | > 100 | > 100 | – | – | – | – | – | – | – | – | – | – | – | –
11 | NCCN.O=C([O-])[O-].O=C([O-])[O-].[Co+3].[K+] | > 100 | > 100 | > 100 | > 100 | > 100 | > 100 | > 100 | > 100 | – | – | > 100 | > 100 | – | – | > 100 | > 100 | > 100 | > 100 | > 100 | > 100
12 | Cc1ccc2[c](c1)[Sn]([c]1ccccc1)([c]1ccccc1)[c]1cc(C)ccc1N2C | > 100 | 90.7 | > 100 | > 100 | > 100 | > 100 | > 100 | > 100 | – | – | 33.2 | 31.8 | – | – | > 100 | 36.9 | 37.9 | 37.3 | > 100 | > 100
13 | NC(=S)N/N=C1\CCCC\C1=C/c1ccccc1 | – | > 100 | > 100 | > 100 | > 100 | 50.3 | > 100 | > 100 | – | – | – | – | – | – | – | – | – | – | – | –
14 | CSc1ccc2c(cc1=O)[C@@H](NC(=O)c1cc(O)c(O)c(O)c1)CCc1cc(O)c(O)c(O)c1-2 | 36.1 | 93.3 | 92 | 41.4 | 70 | 48.7 | 43.6 | 34.5 | – | – | – | – | – | – | – | – | – | – | – | –
15 | CC1CCC(C(C)(C)c2ccccc2)C(=O)C1 (stereo not given) | > 100 | > 100 | > 100 | > 100 | > 100 | > 100 | > 100 | > 100 | – | – | – | – | – | – | – | – | – | – | – | –
16 | N#CC(C#N)=C1CCCOc2c1ccc1ccccc21 | – | > 100 | > 100 | > 100 | > 100 | > 100 | > 100 | > 100 | > 100 | > 100 | – | > 100 | > 100 | > 100 | > 100 | > 100 | > 100 | > 100 | > 100 | > 100
17 | COc1ccc2c(c1)C(C)Cc1c(ncnc1-n1cnc3ccccc31)N2C (stereo not given) | 1.89 | – | 16.6 | 10.9 | 3.41 | 1.43 | 10.2 | 34 | 0.2 | 0.605 | 0.368 | – | 0.313 | 14 | 0.642 | 0.367 | 0.357 | 0.336 | 0.958 | 0.292
18 | COc1ccc(-c2noc(N)c2-c2cc(OC)c3c(c2)OCO3)cc1 | 21.2 | > 100 | > 100 | > 100 | 12.9 | > 35.5 | 28.6 | > 100 | – | – | 3.14 | 9.66 | 0.707 | > 100 | 3.13 | 0.616 | 2.53 | 1.39 | 4.14 | 2.64
